# In patent US20080096933A1, “4-Pyridinylethylcarboxamide Derivatives Useful as Fungicides” (priority 2004, published 2008):
# Experiments:
# Alternaria brassicae = assay: Effectiveness on Alternaria brassicae at 330 ppm; type: in vivo
# Peronospora parasitica = assay: Efficacy against Peronospora parasitica at 330 ppm; type: in vivo
# Botrytis cinerea = assay: Effectiveness on Botrytis cinerea at 330 ppm; type: in vivo
# Pyrenophora teres = assay: In vivo test on Pyrenophora teres (barley net blotch); details: barley plants (Express variety), preventive spray, dose of 330 ppm, grading 12 days after contamination, in comparison with control plants
# Description: In Vivo Test on Pyrenophora teres (Barley Net Blotch)
# The active ingredient tested is prepared by potter homogenisation in a concentrated suspension type formulation at 100 g/l. This suspension is then diluted with water to obtain the desired active material concentration.
# Barley plants (Express variety) in starter cups, sown on a 50/50 peat soil-pozzolana substrate and grown at 12° C., are treated at the 1-leaf stage (10 cm tall) by spraying with the aqueous suspension described above. Plants, used as controls, are treated with an aqueous solution not containing the active material.
# After 24 hours, the plants are contaminated by spraying them with an aqueous suspension of Pyrenophora teres spores (12,000 spores per ml). The spores are collected from a 12-day-old culture The contaminated barley plants are incubated for 24 hours at about 20° C. and at 100% relative humidity, and then for 12 days at 80% relative humidity.
# Grading is carried out 12 days after the contamination, in comparison with the control plants. Under these conditions, good (at least 50%) or total protection is observed at a dose of 330 ppm with the following compounds: A-1.
SMILES,effectiveness on Alternaria brassicae (Alternaria brassicae),efficacy against Peronospora parasitica (Peronospora parasitica),effectiveness on Botrytis cinerea (Botrytis cinerea),protection (good (at least 50%) or total) (Pyrenophora teres)
"O=C(Cc1cccs1)NCc1ncc(C(F)(F)F)cc1Cl [compound 101, N-{[3-chloro-5-(trifluoromethyl)-2-pyridinyl]methyl}-5-thienylacetamide]",poor efficacy,no efficacy,no efficacy,–
"CCNC(=O)C(Cc1ncc(C(F)(F)F)cc1Cl)NC(=O)c1ccccc1Br (stereo not shown) [compound 310, N-{1-ethylcarbamoyl-2-[3-chloro-5-(trifluoromethyl)-2-pyridinyl]ethyl}-2-bromobenzamide]",–,–,zero effectiveness,–
"CNC(=O)C(Cc1ncc(C(F)(F)F)cc1Cl)NC(=O)c1ccc(OC)cc1 (stereo not shown) [compound 315, N-{1-methylcarbamoyl-2-[3-chloro-5-(trifluoromethyl)-2-pyridinyl]ethyl}-4-methoxybenzamide]",–,–,zero effectiveness,–
"CNC(=O)C(Cc1ncc(C(F)(F)F)cc1Cl)NC(=O)c1ccccc1 (stereo not shown) [compound 314, N-{1-methylcarbamoyl-2-[3-chloro-5-(trifluoromethyl)-2-pyridinyl]ethyl}-benzamide]",–,–,zero effectiveness,–
"CNC(=O)C(Cc1ncc(C(F)(F)F)cc1Cl)NC(=O)c1ccc(-c2ccccc2)cc1 (stereo not shown) [compound 316, N-{1-methylcarbamoyl-2-[3-chloro-5-(trifluoromethyl)-2-pyridinyl]ethyl}-4-phenylbenzamide]",poor effectiveness,–,zero effectiveness,–
"CCNC(=O)C(Cc1ncc(C(F)(F)F)cc1Cl)NC(=O)c1ccccc1 (stereo not shown) [compound 304, N-{1-ethylcarbamoyl-2-[3-chloro-5-(trifluoromethyl)-2-pyridinyl]ethyl}-benzamide]",–,–,zero effectiveness,–
"Cn1cc(C(=O)NCCc2c(F)c(F)nc(F)c2F)c(C(F)F)n1 [Compound A-1, 3-(difluoromethyl)-1-methyl-N-[2-(2,3,5,6-tetrafluoro-4-pyridinyl)ethyl]-1H-pyrazole-4-carboxamide]",–,–,–,at least 50%
"CCNC(=O)C(Cc1ncc(C(F)(F)F)cc1Cl)NC(=O)c1ccc(Cl)cc1 (stereo not shown) [compound 306, N-{1-ethylcarbamoyl-2-[3-chloro-5-(trifluoromethyl)-2-pyridinyl]ethyl}-4-chlorobenzamide]",–,–,zero effectiveness,–
"CCNC(=O)C(Cc1ncc(C(F)(F)F)cc1Cl)NC(=O)c1cccc([N+](=O)[O-])c1 (stereo not shown) [compound 307, N-{1-ethylcarbamoyl-2-[3-chloro-5-(trifluoromethyl)-2-pyridinyl]ethyl}-3-nitrobenzamide]",poor effectiveness,–,zero effectiveness,–
